In patent US4672057A, “Morpholino derivatives of daunorubicin and doxorubicin” (priority 1985, dated 1987):
In brackets after ≈: the same amount, converted by molar mass. Like-named read-outs stand apart in the source and are kept apart here.

Tests used:
HeLa cells = assay: Colony inhibition test against HeLa cells in vitro; type: cell-based; conditions: Homo sapiens
Excerpt: The compounds have been tested in several experimental systems in order to ascertain their cytotoxicity and antitumor activity in experimental animals.
Colony inhibition test against HeLa cells
in vitro (treatment for 24 hrs)

P388 leukemia = assay: Antitumor activity against P388 leukemia in CDF-1 mice; type: in vivo; conditions: for LTS (long term survivors, >60 days) / Toxic deaths / T/C %: ip on day 1; for Toxic deaths: autopsy findings; for T/C %: median survival time
Description: (§1) The primary screening in vivo was carried out in CDF-1 mice bearing P388 ascetic leukemia (10^6 cells/mouse). […] The doxorubicin analogs II, IV, VI have been tested in C3H mice bearing the Gross leukemia injected iv (2×10^6 cell/mouse). […] Compound II has been studied on P388 leukemia cells resistant to doxorubicin (P388/DX) in vitro and in vivo. Cytotoxicity tests were carried out exposing the cells to various drug concentrations for 48 hrs. At the end of exposure period cells were counted with a coulter cell counter, and the ID50 (dose which gives 50% reduction of the cell number in comparison with untreated controls) was calculated. […] Compound II has been tested also in vivo in BDF-1 mice bearing P388/DX leukemia.
Antitumor activity against P388 leukemia
^a Median survival time; % over untreated controls
^b Long term survivors (>60 days)
^c Evaluated on the basis of autopsy findings on dead mice

Gross leukemia = assay: Activity on Gross leukemia in C3H mice; type: in vivo; conditions: for LTS (long term survivors, >60 days) / Toxic deaths / T/C %: iv on day 1; for Toxic deaths: autopsy findings; for T/C %: median survival time; for potency versus doxorubicin in Gross leukemia: iv on day 1 after tumor inoculation
Description: as §1
Activity on Gross leukemia (IV-1)

P388 leukemia cells = assay: Cytotoxicity test on doxorubicin-sensitive P388 leukemia cells in vitro; type: cell-based; conditions: for IC50: Mus musculus
Description: as §1
(§2) Effect on sensitive and doxorubicin-resistant
(§3) ^a Dose giving 50% reduction of cell number in comparison with
^b P388 leukemia cells sensitive to doxorubicin

P388/DX leukemia cells = assay: Cytotoxicity test on doxorubicin-resistant P388 leukemia cells (P388/DX) in vitro; type: cell-based; conditions: for activity on P388/DX leukemia cells: P388/DX cells in vitro, 48 hrs
Description: as §1, §2, §3
^c P388 leukemia cells resistant to doxorubicin

P388/DX leukemia = assay: Effect on doxorubicin-resistant P388 leukemia (P388/DX) in vivo; design: species or system BDF-1 mice; conditions: for Toxic deaths: autopsy findings; for T/C: median survival time
Description: as §1
Effect on doxorubicin-resistant P388 leukemia

[1] = HeLa cells, colony inhibition, treatment for 24 hrs, read-out: ID50 (the source's name)
[2] = compared with doxorubicin, P388 leukemia in mice

With `COc1cccc2c1C(=O)c1c(O)c3c(c(O)c1C2=O)C[C@@](O)(C(C)=O)C[C@@H]3O[C@H]1C[C@H](N2CC(CO)OC(OC)C2)[C@H](O)[C@H](C)O1` (stereo partly shown) [V, 3'-deamino-3'-(2"-methoxy-6"-hydroxymethyl-4"-morpholinyl)daunorubicin] the IC50 (HeLa cells; HeLa, 24 h, read-out: ID50) was 10.5 ng/mL (≈ 16 nM), the “LTS (long term survivors, >60 days)” value (P388 leukemia; 2.0 mg/Kg) was 0/10 and the Toxic deaths (P388 leukemia; 2.0 mg/Kg) was 0/10. The T/C % (P388 leukemia; 2.0 mg/Kg) was 145%, the “LTS (long term survivors, >60 days)” value (P388 leukemia; 3.0 mg/Kg) was 0/10 and the Toxic deaths (P388 leukemia; 3.0 mg/Kg) was 0/10. For the same compound, the T/C % (P388 leukemia; 3.0 mg/Kg) was 164% and the “activity versus daunorubicin (increase of mice life span)” value (P388 leukemia; same optimal dose, P388 leukemia in mice) was “more active than daunorubicin”.

In the case of `COc1cccc2c1C(=O)c1c(O)c3c(c(O)c1C2=O)C[C@@](O)(C(C)=O)C[C@@H]3O[C@H]1C[C@H](N)[C@H](O)[C@H](C)O1` [Daunorubicin, daunorubicin], the IC50 (HeLa cells; [1]) is reported as 18.6 ng/mL (≈ 35.3 nM), the “LTS (long term survivors, >60 days)” value (P388 leukemia; 2.9 mg/Kg) is reported as 0/10 and the Toxic deaths (P388 leukemia; 2.9 mg/Kg) is reported as 0/10. The T/C % (P388 leukemia; 2.9 mg/Kg) was 145%, the “LTS (long term survivors, >60 days)” value (P388 leukemia; 4.4 mg/Kg) was 0/10 and the Toxic deaths (P388 leukemia; 4.4 mg/Kg) was 1/10. For the same compound, the T/C % (P388 leukemia; 4.4 mg/Kg) was 150%.

`COc1cccc2c1C(=O)c1c(O)c3c(c(O)c1C2=O)C[C@@](O)(C(C)=O)C[C@@H]3O[C@H]1C[C@H](N2CC(C)OC(OC)C2)[C@H](O)[C@H](C)O1` (stereo partly shown) [III, 3'-deamino-3'-(2"-methoxy-6"-methyl-4"-morpholinyl)daunorubicin] was tested, and the IC50 (HeLa cells; HeLa, 24 h, read-out: ID50) was 1.8 ng/mL (≈ 2.81 nM).

`COc1cccc2c1C(=O)c1c(O)c3c(c(O)c1C2=O)C[C@@](O)(C(=O)CO)C[C@@H]3O[C@H]1C[C@H](N2CCOC(OC)C2)[C@H](O)[C@H](C)O1` (stereo partly shown) [Compound II, 3'-deamino-3'-(2"-methoxy-4"-morpholinyl)doxorubicin] was tested, and the IC50 (HeLa cells; HeLa, 24 h, read-out: ID50) was 0.96 ng/mL (≈ 1.49 nM), the “LTS (long term survivors, >60 days)” value (P388 leukemia; 0.15 mg/Kg) was 2/10 and the Toxic deaths (P388 leukemia; 0.15 mg/Kg) was 0/10. For the same compound, the T/C % (P388 leukemia; 0.15 mg/Kg) was 295%, the “efficacy versus the parent drug” value (P388 leukemia; [2]) was “exhibits a major efficacy” and the “potency versus the parent drug” value (P388 leukemia; [2]) was “more potent than the parent drug”. The “times more potent than the parent drug” value (P388 leukemia; [2]) was 60 times, the “LTS (long term survivors, >60 days)” value (Gross leukemia; 0.16 mg/Kg) was 0/10 and the Toxic deaths (Gross leukemia; 0.16 mg/Kg) was 0/10. The T/C % (Gross leukemia; 0.16 mg/Kg) was 150%, the “potency versus doxorubicin in Gross leukemia” value (from here on “potency versus doxorubicin”) (Gross leukemia) was “more potent than doxorubicin” and the IC50 (P388 leukemia cells; P388, 48 h, read-out: ID50) was 0.3 ng/mL (≈ 0.466 nM). The “times more cytotoxic than doxorubicin” value (P388 leukemia cells; P388 leukemia cells) was 40 times, the “activity on P388/DX leukemia cells” value (P388/DX leukemia cells) was “very active” and the IC50 (P388/DX leukemia cells; P388/DX, 48 h, read-out: ID50) was 0.003 µg/mL (≈ 4.66 nM). For the same compound, the “LTC (long term survivors, >60 days)” value (P388/DX leukemia; 0.075 mg/Kg) was 0/10, the Toxic deaths (P388/DX leukemia; 0.075 mg/Kg) was 0/10 and the T/C (P388/DX leukemia; 0.075 mg/Kg) was 100%. The “LTC (long term survivors, >60 days)” value (P388/DX leukemia; 0.15 mg/Kg) was 0/10, the Toxic deaths (P388/DX leukemia; 0.15 mg/Kg) was 1/10 and the T/C (P388/DX leukemia; 0.15 mg/Kg) was 165%. The “activity in P388/DX leukemia in vivo” value (P388/DX leukemia; BDF-1 mice, 0.15 mg/Kg) was “very active”.

With `COc1cccc2c1C(=O)c1c(O)c3c(c(O)c1C2=O)C[C@@](O)(C(=O)CO)C[C@@H]3O[C@H]1C[C@H](N2CC(CO)OC(OC)C2)[C@H](O)[C@H](C)O1` (stereo partly shown) [VI, 3'-deamino-3'-(2"-methoxy-6"-hydroxymethyl-4"-morpholinyl)doxorubicin] the IC50 (HeLa cells; HeLa, 24 h, read-out: ID50) was 9 ng/mL (≈ 13.4 nM), the “LTS (long term survivors, >60 days)” value (P388 leukemia; 1.33 mg/Kg) was 0/10 and the Toxic deaths (P388 leukemia; 1.33 mg/Kg) was 0/10. The T/C % (P388 leukemia; 1.33 mg/Kg) was 164%, the “LTS (long term survivors, >60 days)” value (P388 leukemia; 2.0 mg/Kg) was 0/10 and the Toxic deaths (P388 leukemia; 2.0 mg/Kg) was 0/10. For the same compound, the T/C % (P388 leukemia; 2.0 mg/Kg) was 195%, the “potency versus the parent drug” value (P388 leukemia; [2]) was “more potent than the parent drug” and the “LTS (long term survivors, >60 days)” value (Gross leukemia; 2 mg/Kg) was 0/10. For the same compound, the Toxic deaths (Gross leukemia; 2 mg/Kg) was 0/10, the T/C % (Gross leukemia; 2 mg/Kg) was 150% and the “potency versus doxorubicin” value (Gross leukemia) was “more potent than doxorubicin”.

For `COc1cccc2c1C(=O)c1c(O)c3c(c(O)c1C2=O)C[C@@](O)(C(=O)CO)C[C@@H]3O[C@H]1C[C@H](N2CC(C)OC(OC)C2)[C@H](O)[C@H](C)O1` (stereo partly shown) [IV, 3'-deamino-3'-(2"-methoxy-6"-methyl-4"-morpholinyl)doxorubicin], the IC50 (HeLa cells; HeLa, 24 h, read-out: ID50) was 0.32 ng/mL (≈ 0.487 nM), the “LTS (long term survivors, >60 days)” value (P388 leukemia; 0.2 mg/Kg) was 0/10 and the Toxic deaths (P388 leukemia; 0.2 mg/Kg) was 0/10. The T/C % (P388 leukemia; 0.2 mg/Kg) was 173%, the “potency versus the parent drug” value (P388 leukemia; [2]) was “more potent than the parent drug” and the “LTS (long term survivors, >60 days)” value (Gross leukemia; 0.27 mg/Kg) was 0/10. The Toxic deaths (Gross leukemia; 0.27 mg/Kg) was 0/10, the T/C % (Gross leukemia; 0.27 mg/Kg) was 142% and the “potency versus doxorubicin” value (Gross leukemia) was “more potent than doxorubicin”.

For `COc1cccc2c1C(=O)c1c(O)c3c(c(O)c1C2=O)C[C@@](O)(C(=O)CO)C[C@@H]3O[C@H]1C[C@H](N)[C@H](O)[C@H](C)O1` [Doxorubicin, doxorubicin], the IC50 (HeLa cells; [1]) was 18 ng/mL (≈ 33.1 nM), the “LTS (long term survivors, >60 days)” value (P388 leukemia; 6.6 mg/Kg) was 0/10 and the Toxic deaths (P388 leukemia; 6.6 mg/Kg) was 0/10. For the same compound, the T/C % (P388 leukemia; 6.6 mg/Kg) was 214%, the “LTS (long term survivors, >60 days)” value (P388 leukemia; 10 mg/Kg) was 1/10 and the Toxic deaths (P388 leukemia; 10 mg/Kg) was 0/10. The T/C % (P388 leukemia; 10 mg/Kg) was 214%, the “LTS (long term survivors, >60 days)” value (Gross leukemia; 10 mg/Kg) was 0/10 and the Toxic deaths (Gross leukemia; 10 mg/Kg) was 0/10. For the same compound, the T/C % (Gross leukemia; 10 mg/Kg) was 183%, the “LTS (long term survivors, >60 days)” value (Gross leukemia; 13 mg/Kg) was 0/10 and the Toxic deaths (Gross leukemia; 13 mg/Kg) was 0/10. The T/C % (Gross leukemia; 13 mg/Kg) was 200%, the IC50 (P388 leukemia cells; P388 sensitive to doxorubicin, 48 hrs exposure, cell count, read-out: ID50 (the source's name)) was 12 ng/mL (≈ 22.1 nM) and the “activity on P388/DX leukemia cells” value (P388/DX leukemia cells) was “inactive”. The IC50 (P388/DX leukemia cells; P388/DX resistant to doxorubicin, 48 hrs exposure, cell count, read-out: ID50 (the source's name)) was 1.5 µg/mL (≈ 2760 nM), the “LTC (long term survivors, >60 days)” value (P388/DX leukemia; 4.4 mg/Kg) was 0/10 and the Toxic deaths (P388/DX leukemia; 4.4 mg/Kg) was 0/10. The T/C (P388/DX leukemia; 4.4 mg/Kg) was 110%, the “LTC (long term survivors, >60 days)” value (P388/DX leukemia; 6.6 mg/Kg) was 0/10 and the Toxic deaths (P388/DX leukemia; 6.6 mg/Kg) was 0/10. The T/C (P388/DX leukemia; 6.6 mg/Kg) was 100%.

With `COc1cccc2c1C(=O)c1c(O)c3c(c(O)c1C2=O)C[C@@](O)(C(C)=O)C[C@@H]3O[C@H]1C[C@H](N2CCOC(OC)C2)[C@H](O)[C@H](C)O1` (stereo partly shown) [Compound I, 3'-deamino-3'-(2"-methoxy-4"-morpholinyl)daunorubicin] the IC50 (HeLa cells; HeLa, 24 h, read-out: ID50) was 2 ng/mL (≈ 3.19 nM), the “LTS (long term survivors, >60 days)” value (P388 leukemia; 0.13 mg/Kg) was 0/10 and the Toxic deaths (P388 leukemia; 0.13 mg/Kg) was 0/10. For the same compound, the T/C % (P388 leukemia; 0.13 mg/Kg) was 136%.
